Paper doi:10.1101/2025.11.20.689572v1 (biorxiv, 2025)
Like-named read-outs stand apart in the source and are kept apart here.

Tests used:
DRD2 = DRD2 (Homo sapiens, UniProt P14416); assay: biochemical; design: species or system HEK293; PDSP competitive radioligand binding, membranes of transfected HEK293 cells, filtration, Ki by Cheng-Prusoff
Procedure: (§1) Competitive radioligand binding assays were performed at the NIMH Psychoactive Drug Screening Program (PDSP) using membranes from transiently transfected HEK293 cells in 96-well format as described. Complete, target-specific protocols are available at the PDSP website (https://pdsp.unc.edu/pdspweb/?site=assays). Primary screenings were run at a single test concentration (10 µM) in quadruplicate. […] Secondary assays were conducted in triplicate using 12-point serial dilutions (0, 0.1, 0.3, 1, 3, 10, 30, 100, 300 nM; 1, 3, 10 µM). Assays were performed in a final volume of 125 µL per well in binding buffer, as detailed in the NIMH PDSP protocols (e.g., standard binding buffer: 50 mM Tris-HCl, pH 7.4, 10 mM MgCl2, 0.1 mM EDTA). Radioligand concentrations were chosen near the target-specific Kd. Total and nonspecific binding were defined in the absence and presence, respectively, of 10 µM reference ligand specific for each receptor. After 90 min incubation at room temperature, reactions were terminated by vacuum filtration onto 0.3% polyethyleneimine-pretreated UniFilter-96 GF/C Microplates using a FilterMate harvester, washed three times with ice-cold buffer (50 mM Tris HCl, pH 7.4), dried, treated with MicroScint-O [compound left out] scintillation cocktails, and counted on a MicroBeta counter. Equilibrium inhibition constants (Ki) were calculated from fitted IC50 values using the Cheng–Prusoff equation [14] with the assay-specific radioligand concentration and Kd. TABLE 1. […] Results represented mean ± SEM from a minimum of 3 independent assays, each in triplicate. ND=not determined.

MOR = molecular target: T1, MOR (Homo sapiens, UniProt P35372); assay: biochemical; design: species or system HEK293; PDSP competitive radioligand binding, membranes of transfected HEK293 cells, filtration, Ki by Cheng-Prusoff
T1 construct: gene OPRM1
T1 sequence (P35372 whole entry): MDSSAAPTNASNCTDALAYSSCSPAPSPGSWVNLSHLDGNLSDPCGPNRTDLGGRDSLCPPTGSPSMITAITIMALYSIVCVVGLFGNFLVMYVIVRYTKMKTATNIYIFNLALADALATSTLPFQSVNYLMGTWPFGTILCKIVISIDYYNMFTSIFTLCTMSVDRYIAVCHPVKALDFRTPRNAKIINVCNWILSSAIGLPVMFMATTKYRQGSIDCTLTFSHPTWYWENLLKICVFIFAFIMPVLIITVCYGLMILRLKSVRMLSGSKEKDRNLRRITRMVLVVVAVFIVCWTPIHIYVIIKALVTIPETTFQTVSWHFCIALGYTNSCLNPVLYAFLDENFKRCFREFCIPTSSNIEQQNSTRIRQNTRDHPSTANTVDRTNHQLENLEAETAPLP
Procedure: as §1

SERT = molecular target: T2, SERT (Homo sapiens, UniProt P31645); assay: biochemical; design: species or system HEK293; PDSP competitive radioligand binding, membranes of transfected HEK293 cells, filtration, Ki by Cheng-Prusoff
T2 construct: gene SLC6A4
T2 sequence (P31645 whole entry): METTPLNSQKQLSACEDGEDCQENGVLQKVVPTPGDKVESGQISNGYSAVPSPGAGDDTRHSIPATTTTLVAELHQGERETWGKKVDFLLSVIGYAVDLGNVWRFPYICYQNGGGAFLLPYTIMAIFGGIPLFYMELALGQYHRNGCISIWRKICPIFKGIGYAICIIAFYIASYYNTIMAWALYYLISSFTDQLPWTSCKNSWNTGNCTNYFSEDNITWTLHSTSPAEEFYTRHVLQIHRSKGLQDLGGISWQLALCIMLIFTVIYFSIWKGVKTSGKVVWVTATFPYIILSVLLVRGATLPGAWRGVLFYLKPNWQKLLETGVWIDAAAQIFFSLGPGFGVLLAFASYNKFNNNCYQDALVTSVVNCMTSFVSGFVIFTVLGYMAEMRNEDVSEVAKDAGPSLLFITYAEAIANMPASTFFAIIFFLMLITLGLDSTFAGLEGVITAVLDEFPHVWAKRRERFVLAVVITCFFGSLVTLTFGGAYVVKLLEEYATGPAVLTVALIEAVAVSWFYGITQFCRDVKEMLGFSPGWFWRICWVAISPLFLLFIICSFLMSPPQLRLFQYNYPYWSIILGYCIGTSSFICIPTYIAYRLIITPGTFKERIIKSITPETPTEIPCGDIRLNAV
Procedure: as §1

α1B = molecular target: T3, α1B (Homo sapiens, UniProt P35368); assay: biochemical; design: species or system HEK293; PDSP competitive radioligand binding, membranes of transfected HEK293 cells, filtration, Ki by Cheng-Prusoff
T3 construct: gene ADRA1B
T3 sequence (P35368 whole entry): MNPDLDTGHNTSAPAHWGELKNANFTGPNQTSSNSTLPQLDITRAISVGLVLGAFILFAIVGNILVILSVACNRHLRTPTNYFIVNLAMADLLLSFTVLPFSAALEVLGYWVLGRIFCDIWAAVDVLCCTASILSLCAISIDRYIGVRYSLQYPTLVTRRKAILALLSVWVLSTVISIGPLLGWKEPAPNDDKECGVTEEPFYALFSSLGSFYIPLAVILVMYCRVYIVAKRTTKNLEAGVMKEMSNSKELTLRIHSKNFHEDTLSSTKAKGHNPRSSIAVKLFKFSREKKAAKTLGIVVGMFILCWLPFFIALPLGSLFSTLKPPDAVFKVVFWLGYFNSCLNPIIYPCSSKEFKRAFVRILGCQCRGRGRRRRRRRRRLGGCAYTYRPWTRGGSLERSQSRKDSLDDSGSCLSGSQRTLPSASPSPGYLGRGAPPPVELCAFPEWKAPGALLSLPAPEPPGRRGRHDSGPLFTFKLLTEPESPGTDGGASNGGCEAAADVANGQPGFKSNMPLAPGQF
Procedure: as §1

DRD4 = molecular target: T4, DRD4 (Homo sapiens, UniProt P21917); assay: biochemical; design: species or system HEK293; PDSP competitive radioligand binding, membranes of transfected HEK293 cells, filtration, Ki by Cheng-Prusoff
T4 sequence (P21917 1-419): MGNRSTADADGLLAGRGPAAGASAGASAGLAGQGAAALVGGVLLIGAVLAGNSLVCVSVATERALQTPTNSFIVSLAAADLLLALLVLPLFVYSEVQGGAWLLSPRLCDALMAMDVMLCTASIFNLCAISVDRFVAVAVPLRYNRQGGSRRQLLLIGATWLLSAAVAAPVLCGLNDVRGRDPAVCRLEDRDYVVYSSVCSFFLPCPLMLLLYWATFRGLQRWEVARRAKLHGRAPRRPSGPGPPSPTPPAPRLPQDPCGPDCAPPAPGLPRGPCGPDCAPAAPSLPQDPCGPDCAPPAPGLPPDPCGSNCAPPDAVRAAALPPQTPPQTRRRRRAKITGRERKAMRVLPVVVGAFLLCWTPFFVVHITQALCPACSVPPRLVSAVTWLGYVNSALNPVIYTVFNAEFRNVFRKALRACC
Procedure: as §1

5-HT3 = molecular target: T5, 5-HT3 (Homo sapiens, UniProt P46098); assay: biochemical; design: species or system HEK293; PDSP competitive radioligand binding, membranes of transfected HEK293 cells, filtration, Ki by Cheng-Prusoff
T5 construct: gene HTR3A
T5 sequence (P46098 whole entry): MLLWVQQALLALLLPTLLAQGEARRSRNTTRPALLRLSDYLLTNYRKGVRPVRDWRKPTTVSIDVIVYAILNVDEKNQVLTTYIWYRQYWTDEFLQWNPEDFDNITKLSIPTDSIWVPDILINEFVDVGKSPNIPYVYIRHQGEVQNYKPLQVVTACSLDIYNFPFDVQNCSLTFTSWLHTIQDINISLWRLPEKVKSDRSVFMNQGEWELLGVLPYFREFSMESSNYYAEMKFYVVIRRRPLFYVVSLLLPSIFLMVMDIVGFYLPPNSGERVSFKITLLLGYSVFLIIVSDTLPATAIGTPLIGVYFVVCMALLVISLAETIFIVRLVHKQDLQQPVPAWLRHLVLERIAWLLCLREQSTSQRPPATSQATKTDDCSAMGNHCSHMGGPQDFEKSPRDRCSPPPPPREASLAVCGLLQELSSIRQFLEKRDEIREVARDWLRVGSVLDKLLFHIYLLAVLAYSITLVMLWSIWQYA
Procedure: as §1

β1 = molecular target: T6, β1 (Homo sapiens, UniProt P08588); assay: biochemical; design: species or system HEK293; PDSP competitive radioligand binding, membranes of transfected HEK293 cells, filtration, Ki by Cheng-Prusoff
T6 construct: gene ADRB1
T6 sequence (P08588 whole entry): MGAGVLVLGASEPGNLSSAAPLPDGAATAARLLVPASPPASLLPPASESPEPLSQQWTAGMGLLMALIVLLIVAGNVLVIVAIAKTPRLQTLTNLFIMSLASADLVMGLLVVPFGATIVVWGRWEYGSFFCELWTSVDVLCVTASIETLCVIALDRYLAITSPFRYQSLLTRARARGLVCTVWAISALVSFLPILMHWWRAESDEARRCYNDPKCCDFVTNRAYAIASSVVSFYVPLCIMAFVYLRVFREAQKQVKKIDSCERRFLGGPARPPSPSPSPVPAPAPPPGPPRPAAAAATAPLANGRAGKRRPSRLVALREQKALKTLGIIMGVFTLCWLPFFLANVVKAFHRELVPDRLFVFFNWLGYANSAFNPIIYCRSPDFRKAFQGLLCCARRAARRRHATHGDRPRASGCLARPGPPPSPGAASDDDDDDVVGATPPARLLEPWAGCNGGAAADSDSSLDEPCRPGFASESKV
Procedure: as §1

DOR = molecular target: T7, DOR (Homo sapiens, UniProt P41143); assay: biochemical; design: species or system HEK293; PDSP competitive radioligand binding, membranes of transfected HEK293 cells, filtration, Ki by Cheng-Prusoff
T7 construct: gene OPRD1
T7 sequence (P41143 whole entry): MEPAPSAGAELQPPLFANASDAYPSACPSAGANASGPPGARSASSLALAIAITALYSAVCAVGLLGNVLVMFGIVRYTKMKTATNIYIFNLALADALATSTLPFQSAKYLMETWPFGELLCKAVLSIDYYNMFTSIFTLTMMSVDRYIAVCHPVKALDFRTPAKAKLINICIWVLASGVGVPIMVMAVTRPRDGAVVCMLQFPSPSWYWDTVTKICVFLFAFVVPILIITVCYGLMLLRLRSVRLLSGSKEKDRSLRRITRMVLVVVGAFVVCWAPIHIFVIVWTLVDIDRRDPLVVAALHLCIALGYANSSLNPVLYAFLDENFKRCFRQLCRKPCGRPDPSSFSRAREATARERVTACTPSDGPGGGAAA
Procedure: as §1

α1D = molecular target: T8, α1D (Homo sapiens, UniProt P25100); assay: biochemical; design: species or system HEK293; PDSP competitive radioligand binding, membranes of transfected HEK293 cells, filtration, Ki by Cheng-Prusoff
T8 construct: gene ADRA1D
T8 sequence (P25100 whole entry): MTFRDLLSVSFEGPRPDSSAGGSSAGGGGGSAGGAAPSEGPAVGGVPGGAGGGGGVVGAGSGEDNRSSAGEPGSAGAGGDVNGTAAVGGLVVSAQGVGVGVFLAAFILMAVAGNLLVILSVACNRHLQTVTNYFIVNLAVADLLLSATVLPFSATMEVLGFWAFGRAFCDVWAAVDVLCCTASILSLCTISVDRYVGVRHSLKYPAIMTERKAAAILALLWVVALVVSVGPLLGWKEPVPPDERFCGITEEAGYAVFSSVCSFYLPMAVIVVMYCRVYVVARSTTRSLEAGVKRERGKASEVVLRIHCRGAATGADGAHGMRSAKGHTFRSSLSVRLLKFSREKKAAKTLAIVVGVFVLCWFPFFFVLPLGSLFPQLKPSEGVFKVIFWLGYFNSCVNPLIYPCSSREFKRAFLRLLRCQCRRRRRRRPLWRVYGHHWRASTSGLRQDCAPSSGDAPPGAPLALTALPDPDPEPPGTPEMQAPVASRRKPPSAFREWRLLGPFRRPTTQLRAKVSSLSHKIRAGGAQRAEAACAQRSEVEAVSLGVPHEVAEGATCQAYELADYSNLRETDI
Procedure: as §1

D5 = molecular target: T9, D5 (Homo sapiens, UniProt P21918); assay: biochemical; design: species or system HEK293; PDSP competitive radioligand binding, membranes of transfected HEK293 cells, filtration, Ki by Cheng-Prusoff
T9 construct: gene DRD5
T9 sequence (P21918 whole entry): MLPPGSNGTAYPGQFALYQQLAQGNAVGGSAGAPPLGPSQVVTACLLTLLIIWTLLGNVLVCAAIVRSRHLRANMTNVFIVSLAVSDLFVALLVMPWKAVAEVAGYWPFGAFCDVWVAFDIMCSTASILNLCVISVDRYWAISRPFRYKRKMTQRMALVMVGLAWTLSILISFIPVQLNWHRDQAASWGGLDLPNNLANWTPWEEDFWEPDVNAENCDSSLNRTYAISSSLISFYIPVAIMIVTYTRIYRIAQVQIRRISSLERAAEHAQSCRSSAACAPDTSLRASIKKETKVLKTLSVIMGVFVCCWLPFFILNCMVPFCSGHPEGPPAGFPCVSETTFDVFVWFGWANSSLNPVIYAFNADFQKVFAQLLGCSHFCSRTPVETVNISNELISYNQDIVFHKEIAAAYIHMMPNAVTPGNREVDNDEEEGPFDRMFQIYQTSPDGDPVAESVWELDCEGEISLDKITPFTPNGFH
Procedure: as §1

CHRM3 = CHRM3 (Homo sapiens, UniProt P20309); assay: cell-based; design: species or system HEK293; BRET1 beta-arrestin2 recruitment, receptor-RLuc8 and mVenus-beta-arrestin2 with GRK2; details: Assay=barr2, agonist mode, % of control agonist
Chain of CHRM3 (P20309 whole entry): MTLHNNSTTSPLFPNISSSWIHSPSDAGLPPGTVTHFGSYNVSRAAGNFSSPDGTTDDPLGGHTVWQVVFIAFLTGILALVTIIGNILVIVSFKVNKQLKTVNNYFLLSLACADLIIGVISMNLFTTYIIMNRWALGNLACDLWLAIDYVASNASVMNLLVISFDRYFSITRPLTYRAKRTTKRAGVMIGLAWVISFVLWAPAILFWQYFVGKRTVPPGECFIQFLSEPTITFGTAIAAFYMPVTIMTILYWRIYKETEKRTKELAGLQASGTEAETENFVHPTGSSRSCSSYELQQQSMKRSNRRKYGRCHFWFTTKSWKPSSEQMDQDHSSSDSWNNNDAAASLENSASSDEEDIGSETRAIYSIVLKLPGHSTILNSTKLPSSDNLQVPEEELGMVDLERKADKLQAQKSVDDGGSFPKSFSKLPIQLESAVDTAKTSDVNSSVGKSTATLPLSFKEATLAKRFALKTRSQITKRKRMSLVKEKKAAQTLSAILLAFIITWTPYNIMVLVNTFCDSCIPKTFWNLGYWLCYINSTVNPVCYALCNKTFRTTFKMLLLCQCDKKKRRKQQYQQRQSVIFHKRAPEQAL
Source text: BRET1 assays followed prior methods.

[1] = read-out: N-desmethyl-xanomeline (PDSP) pKi (converted)

Chain of DRD2 (P14416 whole entry): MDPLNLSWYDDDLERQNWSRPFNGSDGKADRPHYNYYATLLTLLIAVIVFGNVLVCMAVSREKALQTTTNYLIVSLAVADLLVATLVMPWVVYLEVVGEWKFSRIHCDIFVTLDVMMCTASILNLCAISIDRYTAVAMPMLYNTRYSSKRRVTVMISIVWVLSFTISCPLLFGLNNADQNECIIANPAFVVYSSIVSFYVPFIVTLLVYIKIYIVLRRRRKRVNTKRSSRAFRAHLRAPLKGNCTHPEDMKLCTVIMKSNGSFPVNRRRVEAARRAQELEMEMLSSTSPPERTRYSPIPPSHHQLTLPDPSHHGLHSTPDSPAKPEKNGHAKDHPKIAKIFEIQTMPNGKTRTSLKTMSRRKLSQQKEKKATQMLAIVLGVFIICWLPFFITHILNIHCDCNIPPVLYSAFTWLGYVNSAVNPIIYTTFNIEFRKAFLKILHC

In the case of `CCCCCCOc1nsnc1C1=CCCNC1` [N-desmethylxanomeline], the Ki (DRD2; [1]) is reported as 6.61 µM, the Ki (MOR; [1]) is reported as 7.94 µM and the Ki (SERT; [1]) is reported as 1.62 µM. The Ki (α1B; [1]) was 7.24 µM, the Ki (DRD4; [1]) was greater than 10 µM and the Ki (5-HT3; [1]) was 2.4 µM. For the same compound, the Ki (β1; [1]) was 8.71 µM, the Ki (DOR; [1]) was greater than 10 µM and the Ki (α1D; [1]) was 3.31 µM. The Ki (D5; [1]) was greater than 10 µM and the Emax (CHRM3; HEK293, read-out: N-Desmethyl Xanomeline) was 32.8%.
`CCCCCCOc1nsnc1C1=CCCN(C)C1` [Xanomeline] was tested, and the Ki (DRD2) was greater than 10 µM, the Ki (MOR) was greater than 10 µM and the Ki (SERT) was greater than 10 µM. The Ki (α1B) was greater than 10 µM, the Ki (DRD4) was 2 µM and the Ki (5-HT3) was greater than 10 µM. For the same compound, the Ki (β1) was greater than 10 µM, the Ki (DOR) was greater than 10 µM and the Ki (α1D) was greater than 10 µM. The Ki (D5) was greater than 10 µM and the Emax (CHRM3; HEK293, read-out: Xanomeline) was 21.7%.
